# Assay results as given in article PMC7345637, “Characterization of Synthetic Tf2 as a NaV1.3 Selective Pharmacological Probe” (Biomedicines, 2020).
# B1: kurtoxin: scorpion toxin from Parabuthus transvaalicus (protein, UniProt P58910 1-63, looked up)
# Kurtoxin: KIDGYPVDYWNCKRICWYNNKYCNDLCKGLKADSGYCWGWTLSCYCQGLPDNARIKRSGRCRA
# What was measured:
# [1] = tested on: NaV1.3; conditions: cited from earlier work
# Description: (§1) Selective VGSC modulators remain useful tool compounds for delineating the contribution of particular isoforms to the excitability of neurons in both physiological and pathological states. […] In an attempt to rationally ...
# [2] = tested on: NaV1.1; conditions: cited from earlier work
# Description: as §1
# [3] = tested on: C57BL/6J mice; assay: Spontaneous pain behaviors after intraplantar injection, wildtype mice; conditions: mouse, in vivo
# Description: For behavioral assessment, we used adult male wildtype or homozygous NaV1.9-deficient (NaV1.9^-/-) mice aged 6–8 weeks (~25g) on a C57BL/6J background. Homozygous Nav1.9 knockout mice on a C57BL/6J background were generated using CRISPR/Cas9 technology by the Queensland Facility for Advanced Genome Editing (The University of Queensland, Australia). In brief, two sgRNAs were designed to target exon 2 of the Scn11a gene. The deletion of exon 2 generated a frame shift mutation resulting in the introduction of stop codons in exon 3. […]
# […]. Mice were then placed individually into polyvinyl boxes (10 × 10 × 10 cm) and recorded by video for 20 min post-injection. The number of spontaneous pain behaviors, including licks, shakes, and flinches, were counted later by a blinded observer. Once spontaneous pain behavior had ceased, mechanical thresholds were assessed using an electronic von Frey apparatus (MouseMet Electronic von Frey, TopCat Metrology, Ely, UK), heat thresholds were assessed using the thermal probe test (MouseMet Thermal), and weight bearing was assessed using the Catwalk XT (Noldus Information Technology, Wageningen, The Netherlands) as previously described. To quantify weight bearing, the parameter ‘mean intensity of the 15 most intense pixels’ was used as a surrogate measure.
# Data were plotted and analyzed by GraphPad Prism, versions 8.2.0 and 8.4.2. […]
# [4] = tested on: mouse DRG neurons; assay type: cell-based
# [5] = tested on: voltage-gated calcium channels (CaV); conditions: cited from earlier work
# Description: Tf2 caused Ca^2+ influx in both small and large mouse adult DRG neurons, which was surprising given NaV1.3 is only expressed at significant levels in embryonic sensory neurons or in adult neurons after axotomy. […] As DRG neurons in this study were isolated from all spinal levels, we cannot rule out the presence of these NaV1.3-expressing neurons in culture. However, given the definitive lack of proteomic evidenc ...
molecule,measurement,setting,value
O=C(Nc1ccc(S(=O)(=O)Nc2nccs2)cc1)C(c1ccccc1)c1ccccc1 [ICA-121431],NaV1.3 inhibition,[1],most potent NaV1.3 inhibitor described to the date
same,activity at NaV1.1,[2],off-target activity at NaV1.1
same,effect on Tf2-induced spontaneous flinching,[3],no effect on Tf2-induced spontaneous flinching
"NC1=N[C@H](O)[C@H]2[C@H]3O[C@]4(O)O[C@@H]([C@@H](O)[C@@]2(N1)[C@@H]4O)[C@]3(O)CO [TTX, tetrodotoxin]",block of Tf2-induced DRG neuron activation,[4],completely blocked
B1,modulation of voltage-gated calcium channels (CaV),[5],modulate members of the family of voltage-gated calcium channels (CaV)
